Experimental findings from ChEMBL document CHEMBL6127113, “Penicamins A-L, Polyoxygenated Diterpenes from Penicillium camemberti JSB-7212” (J Nat Prod, 2024) are described below.

SMILES strings stand for the structures. The source made the active and inactive calls. The calls are words filed in the database; no cut-off is given here. Where only a bound is given, the exact number is not on record here.

For one data set, the system named is Escherichia coli. Nature of the data set: Antimicrobial activity against Escherichia coli ATCC35218 assessed as inhibition of microbial growth at 50 uM incubated for 24 hrs by microbroth dilution assay. The format is functional, organism-based.
A further data set relates to HeLa. Nature of the data set: Cytotoxicity against human HeLa cells assessed as cell growth inhibition at 50 uM incubated for 48 hrs by CCK-8 assay. The format is functional, cell-based.
Another data set has as its system HepG2. The data set can be described thus: Cytotoxicity against human HepG2 cells assessed as cell growth inhibition at 50 uM incubated for 48 hrs by CCK-8 assay. The format is functional, cell-based.
For a further data set, the system named is HT-29. Nature of the data set: Cytotoxicity against human HT-29 cells assessed as cell growth inhibition at 50 uM incubated for 48 hrs by CCK-8 assay. It is filed as functional, cell-based.
The subject of the next data set is A549. The data set can be described thus: Cytotoxicity against human A549 cells assessed as cell growth inhibition at 50 uM incubated for 48 hrs by CCK-8 assay. The format is functional, cell-based.
Another data set concerns Staphylococcus aureus. Nature of the data set: Antimicrobial activity against Staphylococcus aureus ATCC25923 assessed as inhibition of microbial growth at 50 uM incubated for 24 hrs by microbroth dilution assay. The format is functional, organism-based.
For the next data set, the system named is MCF7. Nature of the data set: Cytotoxicity against human MCF7 cells assessed as cell growth inhibition at 50 uM incubated for 48 hrs by CCK-8 assay. The format is functional, cell-based.
Data set [1] in a line: Selectivity index, ratio of CC50 for cytotoxicity against male BALB/c mouse Splenocyte cells to IC50 for immunosuppressive activity in male BALB/c mouse splenocyte assessed as reduction in ConA-induced T-cell proliferation. It is filed as toxicity, cell-based. The settings on record: splenocytes, read-out: Ratio CC50/IC50.
Data set [2] in a line: Cytotoxicity against male BALB/c mouse Splenocyte cells incubated for 48 hrs by CCK-8 assay. The format is toxicity, cell-based. The settings on record: splenocytes.
A short description of data set [3]: Selectivity index, ratio of CC50 for cytotoxicity against male BALB/c mouse Splenocyte cells to IC50 for immunosuppressive activity in male BALB/c mouse splenocyte assessed as reduction in LPS-induced B-cell proliferation. The format is toxicity, cell-based. The settings on record: splenocytes, read-out: Ratio CC50/IC50.
The subject of data set [4] is Splenocyte. The data set can be described thus: Immunosuppressive activity in male BALB/c mouse splenocyte assessed as reduction in ConA-induced T-cell proliferation incubated for 48 hrs by CCK-8 assay. It is filed as functional, cell-based.
Data set [5] relates to Splenocyte. Nature of the data set: Immunosuppressive activity in male BALB/c mouse splenocyte assessed as reduction in LPS-induced B-cell proliferation incubated for 48 hrs by CCK-8 assay. The format is functional, cell-based.

Consider `C=C(C)[C@H]1CC[C@]2(C)[C@@]34CC(=O)[C@@H](C)[C@@H](C[C@]3(C)C(=O)C[C@@]12O)O4`, for which the outcome in the data set on Escherichia coli, with HeLa, in the data set with HepG2, with HT-29, in the data set with A549 and in the data set with Staphylococcus aureus was inactive. Moreover, the outcome in the data set with MCF7 was inactive.

`C=C(C)[C@H]1CC[C@@]23CO[C@@](O)(C[C@@]12O)[C@@]1(C)C[C@H]2O[C@]13C(=O)C(O)=C2C`: the outcome with Escherichia coli, with HeLa, in the data set with HepG2, with HT-29, in the data set on A549 and with Staphylococcus aureus was inactive. The result in the data set on MCF7 was inactive.

On to `C=C(C)[C@H]1CC[C@]2(C)[C@@]34C[C@@H](O)[C@@H](C)[C@@H](C[C@]3(C)C(=O)C[C@@]12O)O4`, for which the result with Escherichia coli, with HeLa, in the data set on HepG2, in the data set on HT-29, with A549 and with Staphylococcus aureus was inactive. Also, in the data set on MCF7, the outcome was inactive.

Take `C=C(C)[C@H]1CC[C@@]23CO[C@@](O)(C[C@@]12O)[C@@]1(C)C[C@H]2O[C@]13[C@@H](O)C(=O)[C@H]2C`: the outcome with Escherichia coli, in the data set on HeLa, with HepG2, with HT-29, in the data set on A549 and with Staphylococcus aureus was inactive. Further, the outcome in the data set with MCF7 was inactive.

Regarding `C=C(CO)[C@H]1CC[C@@]2(C)C1=CC(=O)[C@@]1(C)C[C@H]3O[C@@]21CC(=O)[C@H]3C`, the outcome in the data set on Escherichia coli, in the data set with HeLa, with HepG2, with HT-29, in the data set on A549 and in the data set with Staphylococcus aureus was inactive. Besides, in the data set with MCF7, the outcome was inactive. For the same compound, the selectivity ratio in data set [1] was greater than 2.5; in [3] it was greater than 6.3. Besides, the CC50 at 48 h in [2] was greater than 50 µM. In addition, the IC50 was 20 µM with Splenocyte [4] and 7.9 µM with Splenocyte [5].

In the case of `C=C(C)[C@H]1CC[C@@]23CO[C@@]4(O)C(=O)C(C)=CC[C@](C)(C(=O)C[C@@]12O)[C@@]34O`, the result in the data set with Escherichia coli, in the data set on HeLa, with HepG2, in the data set on HT-29, with A549 and in the data set with Staphylococcus aureus was inactive. Also, the outcome in the data set on MCF7 was inactive.

`C=C(C)[C@H]1CC[C@]2(C)[C@@]3(O)CC(=O)C(C)=CC[C@]3(C)C(=O)C[C@@]12O`: the outcome with Escherichia coli, in the data set with HeLa, in the data set with HepG2, in the data set on HT-29, with A549 and with Staphylococcus aureus was inactive. Besides, in the data set with MCF7, the result was inactive.

`C=C(C)[C@H]1CC[C@@]23CO[C@@]4(O)C(=O)[C@@H](C)CC[C@](C)(C(=O)C[C@@]12O)[C@@]34O`: the outcome in the data set with Escherichia coli, in the data set with HeLa, with HepG2, in the data set on HT-29, in the data set with A549 and with Staphylococcus aureus was inactive. Also, in the data set with MCF7, the result was inactive.

`C=C(C)[C@H]1[C@H](O)C[C@]2(C)[C@@]34CC(=O)[C@@H](C)[C@@H](C[C@]3(C)C(=O)C[C@@]12O)O4`: the result in the data set with Escherichia coli, in the data set on HeLa, in the data set with HepG2, with HT-29, with A549 and with Staphylococcus aureus was inactive. Further, in the data set on MCF7, the outcome was inactive.

As for `C=C(C)[C@H]1CC[C@]2(C)C3=CC(=O)C(C)=CC[C@]3(C)C(=O)C[C@@]12O`, the result in the data set on Escherichia coli, in the data set with HeLa, with HepG2, with HT-29, in the data set with A549 and in the data set on Staphylococcus aureus was inactive. Moreover, in the data set on MCF7, the outcome was inactive.

As to `C=C(CO)[C@H]1CC[C@]2(C)[C@@]34CC(=O)[C@@H](C)[C@@H](C[C@]3(C)C(=O)C[C@@]12O)O4`, the outcome with Escherichia coli, with HeLa, in the data set with HepG2, with HT-29, in the data set on A549 and in the data set on Staphylococcus aureus was inactive. Also, the result with MCF7 was inactive. For the same compound, the selectivity ratio in data set [1] is greater than 2.6; in data set [3], greater than 17. Besides, the CC50 at 48 h in data set [2] is greater than 50 µM. The IC50 with Splenocyte [4] was determined as 19 µM; in the data set on Splenocyte [5], 3 µM.
